Series [1] has as its system Hela. Kind of series: In vitro anticancer activity test (MTT cell proliferation). Type of series: cell-based. As to conditions: Homo sapiens, average proliferation inhibition rate at the dosage of 40 μM, read-out: Hela Average inhibition rate %. The method, then:
(§1) The anticancer activity of the compounds was tested using an in vitro cancer cell tests. The specific test method is as follows:
(§2) 1. Cell recovery and culture method: the cryovial was taken out from the liquid nitrogen container firstly, soaked directly in 37° C. warm water, and shaked from time to time to let it thaw as soon as possible. Then, the cryovial was transferred to a clean bench, and the lid was open. The cell suspension was taken into a centrifuge tube using a rubber-tipped dropper and more than 10 times the culture medium was added, mixed well, and centrifuged at 50 g for 5 minutes. Then, the supernatant was discarded, complete culture medium containing 10% fetal bovine serum was added to resuspend the cells, the cells was counted, the cell density was adjusted, and then inoculated into a culture bottle. The culture bottle was placed in a cell culture incubator at 5% CO2 and 37° C. The complete culture medium was replaced once the next day and the culture was continued.
(§3) 2. Cell passaging method: adherent cells in the logarithmic growth phase were placed in a clean bench, the original culture medium was discarded, and washed three times with 1×PBS. An appropriate amount of 0.25% trypsin digestion solution was added to moisten the cells, and then the trypsin solution was aspirated. The cells were placed in a cell culture incubator at 5% CO2 and 37° C. for digestion for a suitable time, and observed under a microscope. When 90% of the cells become round, the cells were moved immediately to the clean bench and complete culture medium was added to terminate digestion. Then, the cells were dislodged by pipetting up and down with a rubber-tipped dropper to single cells. The cells were counted, and the cell density was adjusted. The cells were inoculated into a suitable culture bottle or dish, added enough complete culture medium, and placed in a cell culture incubator at 5% CO2 and 37° C. for static culture.
(§4) For suspension cells in the logarithmic phase, the original culture medium was directly centrifuged at 50 g for 5 minutes, the supernatant was discarded, and the cells were washed once with PBS and centrifuged. After discarding the supernatant, the complete culture medium was added and the cells were dispersed using a rubber-tipped dropper. The cells are counted, and the cell density was adjusted. The cells were inoculated into appropriate culture bottles or culture dishes, and sufficient complete culture medium was added, and the cells were cultured in a cell culture incubator at 5% CO2 and 37° C.
(§5) 3. Cell proliferation assay: cells in good state in logarithmic phase were taken and appropriate amount of the cells was inoculated into 96-well plates according to the cell passage treatment method, with each well containing 180 μL complete medium. After the cells growth was recovered and the number of cells in each well is 5000±500, a drug was added for treatment.
After drug treatment during the experimental time, MTT solution with a final concentration of 0.5 mg/mL was added to each well, and placed in a cell culture incubator at 5% CO2 and 37° C. to allow a fully reaction of MTT with cells. After 4 hours, the solution in the 96-well plate was discarded, 100 µL of DMSO was added, and shaked to dissolve the formazan precipitated at the bottom of the plate, and the absorbance value of samples was detected at a wavelength of 570 nm using a microplate reader. Calculation method of cell viability rate:
Table 4 lists some compounds that have inhibitory effects against both of bacteria and cancer cells. In the table, the inhibitory effects against cancer cells are shown: the average proliferation inhibition rate (%) against cancer cells at the dosage of 40 μM.

Series [2] deals with Staphylococcus aureus ATCC43300. Kind of series: Resistance test of bacteria against compounds (serial induction, 21 days). It is filed as cell-based. The method, then:
This example provides a resistance test of bacteria against compounds, and the specific experimental method is as follows.
1. […] It was ensured that among the 6 final concentrations of the drug diluted into the wells, some were higher than the original MIC of the bacteria and some were lower than the original MIC of the bacteria.
2. Preparation of bacterial liquid: 10 mL of culture medium was taken and added to a sterilized plate using a pipette, then 100 µL of the above-mentioned passaged bacterial liquid was added, and mixed well for later use.
3. The above-mentioned diluted bacterial liquid was taken and added to a 96-well plate using a pipette, 180 μL per well, 3 wells per group, 6 groups in total. 20 μL of drug solution was added to each well (note: it is necessary to replace the pipette tip each time the drug is added), so that the final drug concentrations were […], respectively. The well with 200 μL of diluted bacterial liquid was used as the positive control well, and the well with 200 μL of culture medium was used as the negative control well.
The test object was Staphylococcus aureus (S. aureus).

Series [3] shares this test system. Briefly: Systemic blood infection animal model. Type of series: in vivo, mice. As to conditions: 4 mg/kg oral gavage, 3 times a day, 7 days. The protocol: (2) Sterile phosphate buffered saline (PBS) was used to prepare a 1×10^7 CFU/mL Staphylococcus aureus ATCC43300 bacterial suspension for later use; the drug dosage required for mice was calculated for each group, and solutions of Example 34 and solvent for gavage (400 or 200 μL of Tween 80 was mixed with Example 34, grinded with an agate mortar until it became transparent, and then 0.5% sodium carboxymethyl cellulose solution was added to reach the required concentration and volume of the test drug) were prepared for later use.
(3) Except for the blank group, 100 μL of the bacterial suspension prepared in step 2 was injected into the tail vein of each mouse.
(4) 2 hours after the challenge, the drugs prepared in step 2 were administered by oral gavage according to the groups, 3 times a day, 200 uL each time, with an interval of 8 hours, for a total of 7 days. Mice were administered by oral gavage with the drug solvent for the model group and the blank group.
(5) 8 h after the last administration, mice were euthanized by cervical dislocation, disinfected with 75% alcohol, and then necropsied under sterile conditions. The kidneys and livers were harvested, observed and photographed, and the weight was recorded.
(6) The kidneys and livers were placed in a sterile glass grinder and sterile PBS in a volume ten times the weight of the organs was added and grinded. The grinding solutions were taken out, 10-fold serially diluted, smeared to a TSA solid culture medium, and incubated at 37° C. for 16 hours, then the colonies were counted. The number of colonies of the organs was calculated to evaluate the therapeutic effect.

Series [4] has as its system S. aureus ATCC 43300. Briefly: In vitro antibacterial activity assay (MIC, broth dilution). It is filed as cell-based. As to conditions: Staphylococcus aureus. The source says:
(§6) The method used to indicate the activity of the compounds in this example is to record the minimum inhibitory concentration (MIC) of the compounds against bacteria. The specific experimental method is as follows:
(§7) 1. The bacterial liquid cultured from a single colony was taken, and diluted into autoclaved CAMHB broth in a ratio of 1:1000, and mixed well.
(§8) 2. The prepared drug solution was filtered through a sterile 0.22 µm syringe filter and placed in a sterile EP tube for later use.
(§9) 3. A 96-well plate was taken, and 20 µL of drug solution ([…]) was added to each well in the first column of the 96-well plate. Then, 180 µL of diluted bacterial liquid was added and mixed well (Perform 3 replicate rows for each drug).
(§10) The same process was performed for the hydrochloride drug.
(§11) 4. 100 μL of diluted bacterial liquid was added to each well in the remaining 11 columns of the 96-well plate. Drugs are the same as above.
(§12) 5. Serial dilution: 100 μL of liquid was taken from the first column to the second column, mixed well, then 100 μL of liquid was taken from the second column to the third column, mixed well, and so on, sequentially diluting down to the last column (column 12). After mixing column 12 well, 100 μL of liquid thereof was discarded. The drug concentration in each well was decreased by two-fold serially (the concentration in the first well is 40 μg/mL).
(§13) 6. Blank CAMHB broth without added bacteria liquid was added to 3 blank wells in the 96-well plate, as negative control.
(§14) 7. The diluted bacterial liquid was added to 3 blank wells in the 96-well plate, as positive control.
(§15) 8. Incubated at 37° C. for 16 hours.
(§16) 9. Results reading: the minimum inhibitory concentration is the minimum drug concentration at which no bacterial growth is visible to the naked eye and without turbidity.
On the technique in general: In broth dilution the organism is exposed to a series of concentrations in liquid medium.

Series [5] concerns E. coli ATCC 25922. The description is as above. Type of series: cell-based. The note with it: Escherichia coli, ATCC25922.
Text: as §6, §7, §8, §9, §10, §11, §12, §13, §14, §15, §16

The subject of series [6] is E. feacium ATCC 700221. Described as above. It is filed as cell-based. The note with it: read-out: G+ bacteria MIC E. feacium ATCC 700221.
Text: as §6, §7, §8, §9, §10, §11, §12, §13, §14, §15, §16

In series [7] the test system is A. baumannii ATCC 17978. The series is described as above. Type of series: cell-based. The note with it: Acinetobacter baumannii, ATCC17978; Table 2; read-out: G- bacteria MIC A. baumannii ATCC 17978.
Text: as §6, §7, §8, §9, §10, §11, §12, §13, §14, §15, §16

Series [8] relates to P. aeruginosa ATCC 27853. The description is as above. It is filed as cell-based. The note with it: Pseudomonas aeruginosa, ATCC27853; Table 2; read-out: G- bacteria MIC P. aeruginosa ATCC 27853.
Text: as §6, §7, §8, §9, §10, §11, §12, §13, §14, §15, §16

The subject of series [9] is methicillin-resistant Staphylococcus aureus. Type of series: in vivo, Kunming mice. As to conditions: for reduction of necrosis area compared with the control group: 4 consecutive days, MRSA skin infection in mice. The method, then: Kunming mice (20±2 g) were anesthetized with chloral hydrate and shaved, and then 50 μL of 4×10^7 CFU/mL of methicillin-resistant Staphylococcus aureus was subcutaneously injected. One day later, 100 μL of 0.02, 2 and 200 mg/kg of Example 34 were subcutaneously injected respectively, and 100 μL of normal saline was injected for the control group. The drug was administered for consecutive 4 days, and mice were euthanized on the 5th day, and the area of abscess was measured.

Series [10] relates to human renal cancer cell OS-RC-2. Kind of series: In vitro anticancer activity test (MTT cell proliferation). Type of series: cell-based. The protocol: as §1, §2, §3, §4, §5
(§17) After drug treatment during the experimental time, MTT solution with a final concentration of 0.5 mg/mL was added to each well, and placed in a cell culture incubator at 5% CO2 and 37° C. to allow a fully reaction of MTT with cells. After 4 hours, the solution in the 96-well plate was discarded, 100 µL of DMSO was added, and shaked to dissolve the formazan precipitated at the bottom of the plate, and the absorbance value of samples was detected at a wavelength of 570 nm using a microplate reader. Calculation method of cell viability rate: […]

Series [11] relates to human acute monocytic leukemia cell THP-1. The series is described as above. Type of series: cell-based. The method, then:
as §1, §2, §3, §4, §5, §17

Series [12] concerns human liver cancer cell BLE-7402. Described as above. It is filed as cell-based. The method, then:
as §1, §2, §3, §4, §5, §17

Series [13] concerns human acute myeloid leukemia cell MOLM-13. The description is as above. Type of series: cell-based. The method, then: as §1, §2, §3, §4, §5, §17
[14] abbreviates: ATCC43300, Table 1, read-out: G+ bacteria MIC S. aureus ATCC 43300.

Values after ≈ are worked out from the molar mass of the structure shown. Like-named read-outs stand apart in the source and are kept apart here. Where only a bound is given, the exact number is not on record here.

Take `O=C(O)c1cn(C2CC2)c2cc(N3CCNCC3)c(F)cc2c1=O` [Ciprofloxacin, reference compound]: the inhibition (in general, the share of the control response that was lost under treatment) at 40 µM in [1] is no more than 10%. In addition, the “resistance of bacteria in the subsequent culture” value in series [2] (S. aureus ATCC43300, 21 days) is “increased rapidly”. The lowest concentration to inhibit growth in series [2] (period of 21 days, S. aureus ATCC43300) (MIC at the end of the resistance experiment) was 128 µg/mL. Further, in [3], the “number of colonies of liver and kidney” value was “not apparent”. The MIC (commonly the lowest concentration that inhibits growth of the organism) in series [4] (ATCC43300, Table 4, read-out: S. aureus ATCC 43300 MIC) is no more than 1 µg/mL; in series [5] (Table 4, read-out: E. coli ATCC 25922 MIC) it was no more than 1 µg/mL.
In the case of `COc1c(-c2ccc(NC(=O)C(F)(F)F)c(C#N)c2)c(F)cc2c(=O)c(C(=O)O)cn(C3CC3)c12` [Example 8, 7-(3-cyano-4-(2,2,2-trifluoroacetamido)phenyl)-1-cyclopropyl-6-fluoro-8-methoxy-4-oxo-1,4-dihydroquinolin-3-carboxylic acid], the MIC in series [6] was 1 to 8 µg/mL (≈ 2.04 to 16.3 µM); in series [7] it was 0.1 to 1 µg/mL (≈ 0.204 to 2.04 µM); in [4] (setting [14]) it was no more than 0.1 µg/mL; in [8], 0.1 to 1 µg/mL (≈ 0.204 to 2.04 µM); in series [5] (Table 2, read-out: G- bacteria MIC E. coli ATCC 25922), no more than 0.1 µg/mL.
In the case of `O=C(O)c1cn(C2CC2)c2cc(-c3ccc(S(=O)(=O)NCCCl)cc3)c(F)cc2c1=O` [Example 15, 7-(4-(N-(2-chloroethyl)sulfamoyl)phenyl)-1-cyclopropyl-6-fluoro-4-oxo-1,4-dihydroquinolin-3-carboxylic acid], the MIC was greater than 8 µg/mL in series [6] and no more than 0.1 µg/mL in series [4] (ATCC43300, read-out: G+ bacteria MIC S. aureus ATCC 43300).
With `CCCCCNS(=O)(=O)c1ccc(-c2c(F)cc3c(=O)c(C(=O)O)cn(C4CC4)c3c2Cl)cn1` [Example 20, 8-chloro-1-cyclopropyl-6-fluoro-4-oxo-7-(6-(N-pentylaminosulfonyl)pyridine-3-yl)-1,4-dihydroquinolin-3-carboxylic acid], the MIC in series [6] (Table 1) is greater than 8 µg/mL; in [4] (setting [14]) it was no more than 0.1 µg/mL.
As to `O=C(O)c1cn(C2CC2)c2cc(-c3ccc(S(=O)(=O)NCCCCCCO)cc3)c(F)cc2c1=O` [Example 29, 1-cyclopropyl-6-fluoro-7-(4-(N-(6-hydroxyhexyl)sulfamoyl)phenyl)-4-oxo-1,4-dihydroquinolin-3-carboxylic acid], the “reduction of necrosis area compared with the control group” value came out at 78.09% in series [9] (0.02 mg/kg subcutaneous) and 81.21% in series [9] (2 mg/kg subcutaneous). In addition, the “antibacterial effect in skin infection model” value in series [9] ((corresponding to 0.02 mg/kg, 200 mg/kg)) is given as “good antibacterial effect”. In series [9] (mouse, in vivo, sc, 200 mg/kg), the “observation at the subcutaneous administration site” value was “certain bleeding symptom in body surface appeared at the subcutaneous administration site”.
In the case of `O=C(O)c1cn(C2CC2)c2cc(N3CCNCC3)c(F)cc2c1=O` [Reference compound 2 (Ciprofloxacin), reference compound], the IC50 in series [10], in series [11], in [12] and in series [13] was greater than 100 µM throughout.

Values taken from US20260224555A1, “NEW PHENYLQUINOLONE COMPOUND HAVING ANTIBACTERIAL AND ANTI-CANCER FUNCTIONS AND PREPARATION THEREOF” (AlphaMol Science Ltd (Shanghai), priority 2022, published 2026).
